According to article PMC12561453, “Synthesis and Structure–Activity Relationship Study of 2-(amino)quinazolin-4(3H)-one Derivatives as Potential Inhibitors of Methicillin-Resistant Staphylococcus aureus (MRSA)” (Antibiotics, 2025):
Converted amounts (≈) assume the structure as drawn. Like-named read-outs stand apart in the source and are kept apart here.

What was measured:
S. aureus ATCC25923 = assay: Broth microdilution dose-response, S. aureus ATCC25923; assay type: cell-based, Staphylococcus aureus; settings: OD600 after 18–24 h, read-out: ATCC25923 MIC50
Description: (§1) The antistaphylococcal activities (MIC50) of the synthesized compounds were examined via a previously described broth microdilution method against two S. aureus strains: ATCC25923, a methicillin-sensitive reference strain, and JE2, a methicillin-resistant strain of the USA300 lineage (Figure 2, Table 1).
(§2) Staphylococcus aureus USA300, a methicillin-resistant strain, was obtained from the Nebraska Transposon Mutant Library. Staphylococcus aureus ATCC25923, a pan-drug-susceptible strain, was purchased from the American Type Culture Collection (ATCC) (Manassas, VA, USA). S. aureus strains were grown in Cation-Adjusted Mueller–Hinton broth (CAMHB) (Difco) at 37 °C. Bacterial strain stocks were stored in vials with 25% glycerol at −80 °C. For each experiment, overnight cultures were prepared by inoculating a frozen bacterial strain stock in 10 mL of CAMHB medium and incubating at 37 °C in a shaking incubator (180 rpm). For the preliminary screen and dose–response experiments, 100 µL of overnight culture was inoculated into 10 mL of fresh CAMHB and incubated for 3 h at 37 °C and 180 rpm.
(§3) Antibiotic susceptibility assay was tested according to modified Clinical and Laboratory Standards Institute (CLSI) laboratory guidelines for broth microdilution assays. S. aureus was cultured in CAMHB, and bacterial cells were prepared with an OD600 of 0.005. DRC plates were prepared by adding 40 µL of bacterial suspension to each well, where 10 µL of each compound had been dispensed for […] of two-fold serial dilutions starting at […]. After incubation of the plates at 37 °C for 18–24 h with 5% CO2, the growth of S. aureus was detected by measuring the OD600nm using an Ensight (Revvity) spectrometer (Revvity, Waltham, MA, USA).
(§4) Figure 2 In vitro antibacterial activities of 2-(amino)quinazolin-4(3H)-one derivatives. S. aureus ATCC25923 (blue) and USA300 JE (orange) strains were incubated with serial dilutions of 2-(amino)quinazolin-4(3H)-one derivatives (0.19–100 µM) for 18–24 h. The dose–responses were observed by measuring OD600nm. The plots were drawn from each group of strains with nonlinear curve fits.

HepG2 cells = assay: In vitro cytotoxicity, HepG2 viability (resazurin); assay type: cell-based, human; settings: Homo sapiens, HepG2, 24 h, HepG2 cells, 24 h, resazurin; read-out: HepG2 IC50
Method: The in vitro cytotoxicity of the compounds was evaluated by measuring the viability of HepG2 cells, a human liver cell line, following treatment in a dose–response manner, as previously described. […] The efficacy window was calculated as the ratio of IC50 in HepG2 cells to MIC50 against JE2.
To test cytotoxicity with compounds, the human liver cell line HepG2 (ATCC #HB-8065) was used for the assay. HepG2 was cultured in DMEM with 10% fetal bovine serum (FBS) in a 96-well microplate at 37 °C and 5% CO2. HepG2 cells were seeded at a final density of 5 × 10^4 cells/well, and DMEM-containing diluted compounds were added and incubated on the plates at 37 °C in 5% CO2 for 24 h. After that, resazurin (final concentration, 0.1 mg/mL) was added to each well and incubated on the plates at 37 °C in 5% CO2 for 2 h. To detect the fluorescence at 530 nm excitation and 590 nm emission, an Ensight multimode plate reader was used (Revvity, Waltham, MA, USA).

[1] = tested on: S. aureus USA300 JE2 expressing GFP in H460 cells; assay: microbe, parasite or virus in culture; assay type: cell-based, Staphylococcus aureus; settings: for MIC50: Staphylococcus aureus, USA300, 24 h, read-out: H460 Assay MIC50 (MIC50 ex vivo)
Description: Staphylococcus aureus, including MRSA, can invade host cells and replicate intracellularly, which complicates treatment with current therapies. To evaluate the intracellular antibacterial activities of the selected compounds, the fifteen compounds tested for cytotoxicity were further assessed using a cell infection model based on H460 human lung epithelial cells, which mimic MRSA-mediated pneumonia. H460 cells were infected with the USA300 JE2 expressing green fluorescent protein (GFP) and subsequently treated with the compounds in a dose–response manner, along with three reference antibiotics: vancomycin, linezolid, and erythromycin. After 24 h of incubation, bacterial loads were quantified by measuring GFP fluorescence in each well. MIC50 values determined in the H460 infection model (MIC50 ex vivo) were generally higher than those obtained from the in vitro tests, likely due to either limited compound penetration into host cells or reduced antibacterial effect of the compounds against intracellular bacteria (Figure 3, Table 2). […] These findings underscore the potential of compound 6y as a promising lead for further development as a novel antistaphylococcal agent.
To see the ex vivo antimicrobial activity of the compound, the human lung carcinoma cell line H460 (ATCC #HTB-177) was used. The H460 cells were cultured in RPMI 1640 medium with 10% fetal bovine serum (FBS) and in a 96-well microplate at 37 °C and 5% CO2. Cell lines were cultured for 2 days, until they reached full confluence in the well. S. aureus (USA300-containing and pCM29-encoding GFP) was cultured in CAMHB with 10 µg/mL of chloramphenicol, and bacterial cells were harvested. After washing the bacterial cells with phosphate-buffered saline (PBS) and suspending them in RPMI, infected H460 cells with S. aureus (1 × 10^7 CFU) and incubated them for 2.5 h. Samples were washed three times with PBS. Then, cells were treated with gentamicin (50 µg/mL of gentamicin in RPMI) and incubated for 1 h. Samples were washed with PBS, RPMI-containing diluted compounds were added, and then they were incubated at 37 °C in 5% CO2 for 24 h. To detect the Green fluorescent protein (GFP) signal, an Ensight multimode plate reader and Opera Phenix Plus (Revvity, Waltham, MA, USA) were used.
Ex vivo infection model images were generated using the Opera Phenix Plus high-content imaging system. Images were obtained by a confocal microscope with a 20× water objective lens. To detect the bacteria fluorescence signal (GFP), the Alexa 488 channel (488 nm laser/500–550 filter, Thermo Fisher Scientific, Waltham, MA, USA) was used, and the brightfield channel was used for H460 cell images.
Figure 3 Antibacterial activities of 2-(amino)quinazolin-4(3H)-one derivatives in the H460 infection model. H460 cells were infected with S. aureus USA300 JE strain expressing GFP, followed by treatment with serial dilutions of 2-(amino)quinazolin-4(3H)-one derivatives. After incubation at 37 °C for 24 h with 5% CO2, fluorescence signals of the bacteria were detected at 488 nm/510 nm using a multilabel plate reader.

S. aureus USA300 JE2 = assay: Broth microdilution dose-response, S. aureus USA300 JE2 (MRSA); assay type: cell-based, Staphylococcus aureus; settings: for fold better antibacterial activity against JE2 compared to compound 1: JE2, versus compound 1; for MIC50: OD600 after 18–24 h, read-out: USA300 MIC50
Description: as §1, §2, §3, §4

[2] = Staphylococcus aureus, ATCC25923, methicillin-sensitive strain
[3] = Staphylococcus aureus, USA300, USA300 JE2, methicillin-resistant
[4] = USA300 JE2, methicillin-resistant

Compound	MIC50 (S. aureus ATCC25923; [2]) [µM]	MIC50 (S. aureus ATCC25923; methicillin-sensitive strain) [µM]	IC50 (HepG2 cells) [µM]	MIC50 [1] [µM]	fold better antibacterial activity against JE2 compared to compound 1 (S. aureus USA300 JE2)	MIC50 (S. aureus USA300 JE2; [3]) [µM]	MIC50 (S. aureus USA300 JE2; [4]) [µM]	H460 Assay MIC50 (MIC50 ex vivo) ([1]; H460 cells infected with USA300 JE2-GFP, 24 h, GFP fluorescence) [µM]
O=c1[nH]c(Nc2cccc(C(F)(F)F)c2)nc2cc(Cl)ccc12 [6r, 7-Chloro-2-((3-(trifluoromethyl)phenyl)amino)quinazolin-4(3H)-one]	2.1 to 4.5 (≈ 0.713 to 1.53 µg/mL)	3.1 (≈ 1.05 µg/mL)	15.1	35.8 (≈ 12.2 µg/mL)	–	–	–	–
O=c1[nH]c(Nc2cccc(F)c2)nc2cc(Cl)ccc12 [6n, 7-Chloro-2-((3-fluorophenyl)amino)quinazolin-4(3H)-one]	–	–	19.7	43.8 (≈ 12.7 µg/mL)	–	–	–	–
O=c1[nH]c(Nc2cc(Cl)cc(Cl)c2)nc2ccccc12 [6j, 2-((3,5-Dichlorophenyl)amino)quinazolin-4(3H)-one]	3 to 6 (≈ 0.918 to 1.84 µg/mL)	5.9 (≈ 1.81 µg/mL)	29.7	35.4 (≈ 10.8 µg/mL)	at least 6.5 fold	–	–	–
O=c1[nH]c(Nc2cccc(Cl)c2)nc2cc(Cl)ccc12 [6u, 7-Chloro-2-((3-chlorophenyl)amino)quinazolin-4(3H)-one]	2.1 to 4.5 (≈ 0.643 to 1.38 µg/mL)	3.5 (≈ 1.07 µg/mL)	4.3	19.2 (≈ 5.88 µg/mL)	–	0.9 to 3 (≈ 0.276 to 0.918 µg/mL)	1.1 (≈ 0.337 µg/mL)	–
O=c1[nH]c(Nc2cc(Cl)cc(Cl)c2)nc2cc(F)c(F)cc12 [6g, 2-((3,5-Dichlorophenyl)amino)-6,7-difluoroquinazolin-4(3H)-one]	3 to 6 (≈ 1.03 to 2.05 µg/mL)	4.0 (≈ 1.37 µg/mL)	12.9	25.3 (≈ 8.66 µg/mL)	at least 6.5 fold	–	–	–
O=c1[nH]c(NCc2ccc(Cl)cc2Cl)nc2cc(Cl)ccc12 [6x, 7-Chloro-2-((2,4-dichlorobenzyl)amino)quinazolin-4(3H)-one]	2.1 to 4.5 (≈ 0.745 to 1.6 µg/mL)	3.4 (≈ 1.21 µg/mL)	15.3	17.8 (≈ 6.31 µg/mL)	–	0.9 to 3 (≈ 0.319 to 1.06 µg/mL)	1.7 (≈ 0.603 µg/mL)	–
O=c1[nH]c(Nc2cc(Cl)cc(Cl)c2)nc2cc([N+](=O)[O-])ccc12 [6e, 2-((3,5-Dichlorophenyl)amino)-7-nitroquinazolin-4(3H)-one]	3 to 6 (≈ 1.05 to 2.11 µg/mL)	3.0 (≈ 1.05 µg/mL)	9.3	68.8 (≈ 24.2 µg/mL)	at least 6.5 fold	–	–	–
O=c1[nH]c(Nc2cc(Cl)cc(Cl)c2)nc2cc(C(F)(F)F)ccc12 [6k, 2-((3,5-Dichlorophenyl)amino)-7-(trifluoromethyl)quinazolin-4(3H)-one]	1.3 (≈ 0.486 µg/mL)	–	10.5	6 (≈ 2.24 µg/mL)	–	0.3 (≈ 0.112 µg/mL)	–	–
CC[C@H]1OC(=O)[C@H](C)[C@@H](O[C@H]2C[C@@](C)(OC)[C@@H](O)[C@H](C)O2)[C@H](C)[C@@H](O[C@@H]2O[C@H](C)C[C@H](N(C)C)[C@H]2O)[C@](C)(O)C[C@@H](C)C(=O)[C@H](C)[C@@H](O)[C@]1(C)O [Erythromycin, reference compound]	0.7 (≈ 0.514 µg/mL)	–	> 100	0.1 (≈ 0.0734 µg/mL)	–	0.49 (≈ 0.36 µg/mL)	–	–
O=c1[nH]c(Nc2cc(Cl)cc(Cl)c2)nc2cc(Cl)c(Cl)cc12 [6h, 6,7-Dichloro-2-((3,5-dichlorophenyl)amino)quinazolin-4(3H)-one]	3 to 6 (≈ 1.13 to 2.25 µg/mL)	3.7 (≈ 1.39 µg/mL)	10.2	4.1 (≈ 1.54 µg/mL)	at least 6.5 fold	0.3 to 1.9 (≈ 0.113 to 0.713 µg/mL)	0.3 (≈ 0.113 µg/mL)	–
CC(=O)NC[C@H]1CN(c2ccc(N3CCOCC3)c(F)c2)C(=O)O1 [linezolid, reference compound]	–	–	–	–	–	–	–	1.2
O=c1[nH]c(Nc2cc(Cl)cc(Cl)c2)nc2c(Cl)cc(Cl)cc12 [6i, 6,8-Dichloro-2-((3,5-dichlorophenyl)amino)quinazolin-4(3H)-one]	3 to 6 (≈ 1.13 to 2.25 µg/mL)	5.7 (≈ 2.14 µg/mL)	39.5	26.5 (≈ 9.94 µg/mL)	at least 6.5 fold	–	–	–
O=c1[nH]c(Nc2cc(F)cc(F)c2)nc2cc(Cl)ccc12 [6q, 7-Chloro-2-((3,5-difluorophenyl)amino)quinazolin-4(3H)-one]	2.1 to 4.5 (≈ 0.646 to 1.38 µg/mL)	2.1 (≈ 0.646 µg/mL)	35.5	8.7 (≈ 2.68 µg/mL)	–	0.9 to 3 (≈ 0.277 to 0.923 µg/mL)	0.9 (≈ 0.277 µg/mL)	–
O=c1[nH]c(Nc2cc(Cl)cc(Cl)c2)nc2c(Br)cc(Br)cc12 [6f, 6,8-Dibromo-2-((3,5-dichlorophenyl)amino)quinazolin-4(3H)-one]	3 to 6 (≈ 1.39 to 2.78 µg/mL)	6.0 (≈ 2.78 µg/mL)	9.6	8.7 (≈ 4.04 µg/mL)	at least 6.5 fold	–	–	–
